The values that follow come from patent US6552225B1, “Chemical compounds” (AstraZeneca AB, priority 1999, dated 2003).

For series [1] the following is noted: cited from earlier work.
The test system of the next series is PDH. To be noted: cited from earlier work.

Structures are written as SMILES.

As a reminder, the melting point is the temperature of the solid-liquid transition. Regarding `COc1cc(S(=O)(=O)Nc2ccccc2)c(OC)cc1NC(=O)[C@@](C)(O)C(F)(F)F`, the melting point lay within 194 to 195 °C.
Turning to `O=C(O)C(Cl)Cl` [DCA, dichloroacetic acid], the glycaemia result in series [1] (Stacpoole et al., 1978) was “reducing glycaemia”. Moreover, in series [1] (after repeated administration), the plasma glucose entry is listed as “significant decrease in plasma glucose”. The “activity of PDH” value with PDH (after acute administration in animals) is recorded as “increases the activity of PDH”. The “proportion of PDH in its active form” value with PDH (single administration, 150 mg/kg, intraperitoneally) is reported as “increased the proportion of PDH in its active form”.
